{"source": "patent US20240315991A1", "about": "“USES OF HNF4 ALPHA AGONISTS” (Sanford Burnham Prebys Medical Discovery Institute, priority 2023, published 2024)", "key": {"PPARGC1A(PGC1a)": {"tested_on": "PPARGC1A(PGC1a)", "test": "Western blotting of liver, PPARGC1A(PGC1a)", "type": "in vivo, mouse", "settings": "HFD+NCT vs HFD, FIGS. 4A-4C", "description": "(§1) NCT oral administration. Four-week-old male C57BL/6J (JAX cat #000664) mice were purchased from Jackson laboratory and were maintained in a 12 h light/dark cycle throughout the experiment. Prior to the experiments, mice were acclimated for 2 weeks. Six-week-old mice with similar body weights were randomized to a normal diet (NC), a high fat diet (HFD) (Research Diets, cat #D12492 60 kcal % fat) or HFD containing 4000 ppm NCT (HFD+NCT) (Research Diets, 60 kcal % fat+4000 ppm NCT), which was calculated to provide approximately 400 mg/kg/d NCT. HFD chow containing NCT was made with gray dye to distinguish it from regular HFD chow that had green dye. Mice for each treatment group were placed in separate cages. Equal amounts of fresh chow were provided every week to all mice. Body weight gain and food intake were measured every week for 10 weeks. After 10 weeks of chow treatment, mice were sacrificed for analysis. All animal experiments were approved by the Institutional Animal Care and Use Committee (IACUC) of the Sanford Burnham Prebys Medical Discovery Institute in accordance with national regulations. Sample size was chosen based on the prior study of NCT delivered by IP injection.\nWestern blotting. Mouse liver extracts were prepared by incubation in RIPA buffer (Invitrogen) containing protease inhibitors (Calbiochem, SanDiego, CA). Protein was quantified by BCA assay (Thermo Scientific). […]"}, "Sirt3 mRNA [1]": {"tested_on": "Sirt3 mRNA", "test": "RT-PCR of mouse liver, Sirtuin3", "type": "in vivo", "settings": "HFD+NCT vs HFD, FIG. 4E", "description": "as §1, with “All animal experiments were approved by the Institutional Animal Care and Use Committee (IACUC) of the Sanford Burnham Prebys Medical Discovery Institute in accordance with national regulations. Sample size was chosen based on the prior study of NCT delivered by IP injection.” left out\n(§2) RT-PCR. […] Quantitative real time PCR (RT-PCR) analysis was performed using SYBR® Select Master Mix (Applied Biosystems) and an ABI 7900HT thermal cycler (Applied Biosystems, Thermo Fisher Scientific). Ct values were normalized to 18s rRNA and are expressed as fold change over samples from mice fed NC or cultured human hepatocytes without NCT."}, "[2]": {"tested_on": "blood alanine transaminase (ALT)", "test": "Liver profile analysis, blood ALT", "type": "in vivo, mouse", "settings": "mice fed on HFD, HFD+NCT vs HFD, FIG. 5I", "description": "as §1, with “All animal experiments were approved by the Institutional Animal Care and Use Committee (IACUC) of the Sanford Burnham Prebys Medical Discovery Institute in accordance with national regulations. Sample size was chosen based on the prior study of NCT delivered by IP injection.” left out\nLiver profile analysis. […] The levels of multiple analytes, including alkaline phosphatase (ALP), alanine aminotransferase (ALT), gamma glutamyl transferase (GGT), bile acids (BA), total bilirubin (TBIL), albumin (ALB), blood urea nitrogen (BUN), total cholesterol (CHOL) were quantified using a VetScan VS2 Chemistry Analyzer (Abaxis North America, USA)."}, "Sirt1 mRNA": {"tested_on": "Sirt1 mRNA", "test": "RT-PCR of primary human hepatocytes, Sirtuin1", "type": "cell-based", "settings": "HEP-fat media, NCT 5, 15, and 40 μM, FIG. 4G", "description": "(§3) Primary human hepatocytes. Experiments with primary human hepatocytes were performed by CN-Bio (Cambridge, UK). Briefly, primary human hepatocytes (PHHs), human Kupffer cells (HKs) and human stellate cells (HSCs) were seeded onto CN-Bio's PhysioMimix LC12 MPS culture plates at 6×10^5 cells for PHHs and 6×10^4 cells for HKs and HSCs in 1.6 ml of CN-Bio's HEP-lean media with 5% FCS. Throughout the experiment the cells were maintained at a flow rate of 1 μl/s. After 24 hours (Day 1) of seeding, the media was changed to HEP-lean media and the cells were incubated until day 4 to allow the cells to form microtissues. At day 4 post seeding, media was changed to HEP-fat media and treated with DMSO or NCT (5, 15, and 40 μM). Media was replaced on days 6 and 8. Cells were harvested on day 10 for RNA extraction and culture media was collected for ELISA analysis.\nas §2"}, "Sirt3 mRNA [3]": {"tested_on": "Sirt3 mRNA", "test": "RT-PCR of primary human hepatocytes, Sirtuin3", "type": "cell-based", "settings": "HEP-fat media, NCT 5, 15, and 40 μM, FIG. 4H", "description": "as §3, §2"}, "IL-6 mRNA": {"tested_on": "IL-6 mRNA", "test": "RT-PCR of primary human hepatocytes, IL-6", "type": "cell-based", "settings": "HEP-fat media, NCT 5, 15, and 40 μM, FIG. 5E", "description": "as §3, §2"}, "cytochrome C mRNA": {"tested_on": "cytochrome C mRNA", "test": "RT-PCR of mouse liver, cytochrome C", "type": "in vivo", "settings": "HFD vs. HFD+NCT, FIG. 3G", "description": "as §1, with “All animal experiments were approved by the Institutional Animal Care and Use Committee (IACUC) of the Sanford Burnham Prebys Medical Discovery Institute in accordance with national regulations. Sample size was chosen based on the prior study of NCT delivered by IP injection.” left out\nas §2"}, "HNF4α": {"target": "T1, HNF4α (Homo sapiens, UniProt P41235)", "T1 sequence (P41235 1-474)": "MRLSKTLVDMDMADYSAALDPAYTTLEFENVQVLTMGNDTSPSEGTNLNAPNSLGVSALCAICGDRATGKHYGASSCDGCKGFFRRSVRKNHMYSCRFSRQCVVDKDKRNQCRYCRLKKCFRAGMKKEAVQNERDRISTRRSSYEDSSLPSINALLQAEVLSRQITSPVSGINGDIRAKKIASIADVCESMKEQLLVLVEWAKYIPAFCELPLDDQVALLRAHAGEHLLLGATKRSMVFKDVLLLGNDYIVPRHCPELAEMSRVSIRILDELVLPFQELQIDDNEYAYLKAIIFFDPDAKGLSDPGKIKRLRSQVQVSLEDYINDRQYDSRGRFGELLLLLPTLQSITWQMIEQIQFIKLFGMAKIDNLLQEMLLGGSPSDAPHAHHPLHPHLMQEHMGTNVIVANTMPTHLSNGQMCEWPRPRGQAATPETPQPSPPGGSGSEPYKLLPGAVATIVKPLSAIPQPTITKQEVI", "settings": "cited from earlier work"}}}
{"smiles": "O=C(/C=C/c1ccc(O)c(O)c1)NCCc1ccc(O)cc1", "note": "[NCT, N-trans caffeoyltyramine]", "values": [{"measurement": "PPARGC1A(PGC1a) protein level in mouse liver", "setting": "PPARGC1A(PGC1a)", "result": "increase"}, {"measurement": "Sirt3 mRNA in mouse liver", "setting": "Sirt3 mRNA [1]", "result": "reverse the depression"}, {"measurement": "blood alanine transaminase (ALT) level", "setting": "[2]", "result": "decrease"}, {"measurement": "Sirt1 mRNA in primary human hepatocytes", "setting": "Sirt1 mRNA", "result": "reverse the depression"}, {"measurement": "Sirt3 mRNA in primary human hepatocytes", "setting": "Sirt3 mRNA [3]", "result": "reverse the depression"}, {"measurement": "IL-6 mRNA level in cultured human hepatocytes", "setting": "IL-6 mRNA", "result": "decrease"}, {"measurement": "cytochrome C mRNA levels in mouse livers", "setting": "cytochrome C mRNA", "result": "non-significant"}, {"measurement": "specificity for HNF4α", "setting": "HNF4α; HNF4α siRNA ablates their effect", "result": "exhibit specificity for HNF4α"}, {"measurement": "activation of HNF4α, potency compared with Alverine and Benfluorex", "setting": "HNF4α", "result": "much more potent activators"}]}
